Results: US6355799B1, “Substituted benzene compounds, process for their preparation, and herbicidal and defoliant compositions containing them” (ISK Americas Incorporated, priority 1997, dated 2002)

Tests used:
Assay type in all cases: in vivo
[1] = tested on: ivyleaf morningglory (Ipomoea hederacea, IPOHE); assay: Pre-emerge test, greenhouse herbicide activity screening; conditions: pre-emerge, rated 14 days after application, 0 = no damage, 100 = complete death
Summary of the method: (§1)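 Fourteen days after spraying, crop and weed injury was graded visually from 0, no effect, to 100, every plant dead. Test substances were dissolved in acetone and applied at 15–1000 g ai/ha with a flat-fan nozzle. Application was either pre-emergence, one day after sowing, or post-emergence at the 2–3 leaf stage.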

[2] = tested on: green foxtail (Setaria viridis, SETVI); assay: as above; conditions: pre-emerge, rated 14 days after application, 0 = no damage, 100 = complete death
Summary of the method: as §1

[3] = tested on: velvetleaf (Abutilon theophrasti, ABUTH); assay: as above; conditions: pre-emerge, rated 14 days after application, 0 = no damage, 100 = complete death
Summary of the method: as §1

[4] = tested on: johnsongrass (Sorghum halepense, SORHA); assay: as above; conditions: pre-emerge, rated 14 days after application, 0 = no damage, 100 = complete death
Summary of the method: as §1

[5] = tested on: sicklepod (Cassia obtusifolia, CASOB); assay: as above; conditions: pre-emerge, rated 14 days after application, 0 = no damage, 100 = complete death
Summary of the method: as §1

[6] = tested on: barnyardgrass (Echinochloa crus-galli, ECHCG); assay: as above; conditions: pre-emerge, rated 14 days after application, 0 = no damage, 100 = complete death
Summary of the method: as §1

[7] = tested on: large crabgrass (Digitaria sanguinalis, DIGSA); assay: as above; conditions: pre-emerge, rated 14 days after application, 0 = no damage, 100 = complete death
Summary of the method: as §1

[8] = tested on: lambsquarters (Chenopodium album, CHEAL); assay: as above; conditions: pre-emerge, rated 14 days after application, 0 = no damage, 100 = complete death
Summary of the method: as §1

[9] = tested on: common ragweed (Ambrosia artemisizfolia L., AMBEL); assay: as above; conditions: pre-emerge, rated 14 days after application, 0 = no damage, 100 = complete death
Summary of the method: as §1

[10] = tested on: field corn (Zea mays L., var. Dekalb 535, CORN); assay: Pre-emerge test, crop safety; conditions: pre-emerge, rated 14 days after application, 0 = no damage, 100 = complete death
Summary of the method: (§2)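 Applied at 15–1000 g ai/ha from acetone in 187 l/ha spray volume. Post-emergence applications included 0.25% v/v non-ionic surfactant and reached plants sown 8–21 days before. Pre-emergence applications were incorporated by surface watering. Efficacy or crop damage was rated on a 0–100 scale after 14 days.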

[11] = tested on: upland rice (Oryza sp., var. Tebonnet, RICE); assay: Pre-emerge test, crop safety; conditions: pre-emerge, rated 14 days after application, 0 = no damage, 100 = complete death
Summary of the method: as §2

[12] = tested on: field corn (Zea mays L., var. Dekalb 535, CORN); assay: Post-emerge test, crop safety; conditions: phytotoxicity rating 0-100 (0 no damage, 100 complete death), 14 days after application
Summary of the method: as §1

[13] = tested on: upland rice (Oryza sp., var. Tebonnet, RICE); assay: Post-emerge test, crop safety; conditions: phytotoxicity rating 0-100 (0 no damage, 100 complete death), 14 days after application
Summary of the method: as §1

[14] = tested on: ivyleaf morningglory (Ipomoea hederacea, IPOHE); assay: Post-emerge test, greenhouse herbicide activity screening; conditions: phytotoxicity rating 0-100 (0 no damage, 100 complete death), 14 days after application
Summary of the method: (§3)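 Herbicidal damage is scored 0 (none) to 100 (complete plant death) two weeks after a simulated field spray. Rates span 15–1000 g ai/ha, delivered in acetone at 187 l/ha. For post-emergence treatments, plants have 2–3 leaves and the spray carries 0.25% v/v non-ionic surfactant.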

[15] = tested on: green foxtail (Setaria viridis, SETVI); assay: as above; conditions: phytotoxicity rating 0-100 (0 no damage, 100 complete death), 14 days after application
Summary of the method: as §3

[16] = tested on: velvetleaf (Abutilon theophrasti, ABUTH); assay: as above; conditions: phytotoxicity rating 0-100 (0 no damage, 100 complete death), 14 days after application
Summary of the method: as §3

[17] = tested on: johnsongrass (Sorghum halepense, SORHA); assay: as above; conditions: phytotoxicity rating 0-100 (0 no damage, 100 complete death), 14 days after application
Summary of the method: as §3

[18] = tested on: sicklepod (Cassia obtusifolia, CASOB); assay: as above; conditions: phytotoxicity rating 0-100 (0 no damage, 100 complete death), 14 days after application
Summary of the method: as §3

[19] = tested on: barnyardgrass (Echinochloa crus-galli, ECHCG); assay: as above; conditions: phytotoxicity rating 0-100 (0 no damage, 100 complete death), 14 days after application
Summary of the method: as §3

[20] = tested on: large crabgrass (Digitaria sanguinalis, DIGSA); assay: as above; conditions: phytotoxicity rating 0-100 (0 no damage, 100 complete death), 14 days after application
Summary of the method: as §3

[21] = tested on: redroot pigweed (Amaranthus retroflexus, AMARE); assay: as above; conditions: phytotoxicity rating 0-100 (0 no damage, 100 complete death), 14 days after application
Summary of the method: as §3

[22] = tested on: lambsquarters (Chenopodium album, CHEAL); assay: as above; conditions: phytotoxicity rating 0-100 (0 no damage, 100 complete death), 14 days after application
Summary of the method: as §3

[23] = tested on: common ragweed (Ambrosia artemisizfolia L., AMBEL); assay: as above; conditions: phytotoxicity rating 0-100 (0 no damage, 100 complete death), 14 days after application
Summary of the method: as §3

[24] = tested on: redroot pigweed (Amaranthus retroflexus, AMARE); assay: Pre-emerge test, greenhouse herbicide activity screening; conditions: pre-emerge, rated 14 days after application, 0 = no damage, 100 = complete death
Summary of the method: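 Visual ratings on a 0-100 scale (0 no damage, 100 all plants dead) were taken at 14 days after treatment. Rates of 15-1000 g ai/ha in acetone, 187 l/ha, were sprayed onto soil one day after planting (pre-emerge) or onto 2-3 leaf plants with 0.25% v/v surfactant (post-emerge).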

SMILES: COc1c(Cl)cc(F)c(-n2c(=O)cc(C(F)(F)F)n(C)c2=O)c1NC(=O)c1ccc(C)cc1 [2-24]
- Pre-emerge Herbicidal Activity IPOHE (phytotoxicity rating, scale 0-100) ([1]; 63 g ai/ha): 100
- Pre-emerge Herbicidal Activity IPOHE (phytotoxicity rating, scale 0-100) ([1]; 250 g ai/ha): 100
- Pre-emerge Herbicidal Activity SETVI (phytotoxicity rating, scale 0-100) ([2]; 63 g ai/ha): 100
- Pre-emerge Herbicidal Activity SETVI (phytotoxicity rating, scale 0-100) ([2]; 250 g ai/ha): 100
- Pre-emerge Herbicidal Activity ABUTH (phytotoxicity rating, scale 0-100) ([3]; 63 g ai/ha): 100
- Pre-emerge Herbicidal Activity ABUTH (phytotoxicity rating, scale 0-100) ([3]; 250 g ai/ha): 100
- Pre-emerge Herbicidal Activity SORHA (phytotoxicity rating, scale 0-100) ([4]; 63 g ai/ha): 95
- Pre-emerge Herbicidal Activity SORHA (phytotoxicity rating, scale 0-100) ([4]; 250 g ai/ha): 100
- Pre-emerge Herbicidal Activity CASOB (phytotoxicity rating, scale 0-100) ([5]; 63 g ai/ha): 90
- Pre-emerge Herbicidal Activity CASOB (phytotoxicity rating, scale 0-100) ([5]; 250 g ai/ha): 100
- Pre-emerge Herbicidal Activity ECHCG (phytotoxicity rating, scale 0-100) ([6]; 63 g ai/ha): 95
- Pre-emerge Herbicidal Activity ECHCG (phytotoxicity rating, scale 0-100) ([6]; 250 g ai/ha): 100
- Pre-emerge Herbicidal Activity DIGSA (phytotoxicity rating, scale 0-100) ([7]; 63 g ai/ha): 100
- Pre-emerge Herbicidal Activity DIGSA (phytotoxicity rating, scale 0-100) ([7]; 250 g ai/ha): 100
- Pre-emerge Herbicidal Activity CHEAL (phytotoxicity rating, scale 0-100) ([8]; 63 g ai/ha): 100
- Pre-emerge Herbicidal Activity CHEAL (phytotoxicity rating, scale 0-100) ([8]; 250 g ai/ha): 100
- Pre-emerge Herbicidal Activity AMBEL (phytotoxicity rating, scale 0-100) ([9]; 63 g ai/ha): 100
- Pre-emerge Herbicidal Activity AMBEL (phytotoxicity rating, scale 0-100) ([9]; 250 g ai/ha): 100
- Pre-emerge crop damage CORN (phytotoxicity rating, scale 0-100) ([10]; 63 g ai/ha): 95
- Pre-emerge crop damage CORN (phytotoxicity rating, scale 0-100) ([10]; 250 g ai/ha): 98
- Pre-emerge crop damage RICE (phytotoxicity rating, scale 0-100) ([11]; 63 g ai/ha): 90
- Pre-emerge crop damage RICE (phytotoxicity rating, scale 0-100) ([11]; 250 g ai/ha): 99
- Post-emerge Herbicidal Activity CORN (crop damage) ([12]; 63 g ai/ha): 70
- Post-emerge Herbicidal Activity CORN (crop damage) ([12]; 250 g ai/ha): 95
- Post-emerge Herbicidal Activity RICE (crop damage) ([13]; 63 g ai/ha): 70
- Post-emerge Herbicidal Activity RICE (crop damage) ([13]; 250 g ai/ha): 90
- Post-emerge Herbicidal Activity IPOHE ([14]; 63 g ai/ha): 100
- Post-emerge Herbicidal Activity IPOHE ([14]; 250 g ai/ha): 100
- Post-emerge Herbicidal Activity SETVI ([15]; 63 g ai/ha): 20
- Post-emerge Herbicidal Activity SETVI ([15]; 250 g ai/ha): 70
- Post-emerge Herbicidal Activity ABUTH ([16]; 63 g ai/ha): 100
- Post-emerge Herbicidal Activity ABUTH ([16]; 250 g ai/ha): 100
- Post-emerge Herbicidal Activity SORHA ([17]; 63 g ai/ha): 60
- Post-emerge Herbicidal Activity SORHA ([17]; 250 g ai/ha): 90
- Post-emerge Herbicidal Activity CASOB ([18]; 63 g ai/ha): 100
- Post-emerge Herbicidal Activity CASOB ([18]; 250 g ai/ha): 100
- Post-emerge Herbicidal Activity ECHCG ([19]; 63 g ai/ha): 70
- Post-emerge Herbicidal Activity ECHCG ([19]; 250 g ai/ha): 95
- Post-emerge Herbicidal Activity DIGSA ([20]; 63 g ai/ha): 10
- Post-emerge Herbicidal Activity DIGSA ([20]; 250 g ai/ha): 50
- Post-emerge Herbicidal Activity AMARE ([21]; 63 g ai/ha): 100
- Post-emerge Herbicidal Activity AMARE ([21]; 250 g ai/ha): 100
- Post-emerge Herbicidal Activity CHEAL ([22]; 63 g ai/ha): 99
- Post-emerge Herbicidal Activity CHEAL ([22]; 250 g ai/ha): 100
- Post-emerge Herbicidal Activity AMBEL ([23]; 63 g ai/ha): 100
- Post-emerge Herbicidal Activity AMBEL ([23]; 250 g ai/ha): 100
- Pre-emerge Herbicidal Activity AMARE (phytotoxicity rating, scale 0-100) ([24]; 63 g ai/ha): 100
- Pre-emerge Herbicidal Activity AMARE (phytotoxicity rating, scale 0-100) ([24]; 250 g ai/ha): 100
